Here are results for 14 compounds from ChEMBL document CHEMBL4138141, “Rapid generation of a novel DPP-4 inhibitor with long-acting properties: SAR study and PK/PD evaluation” (Eur J Med Chem, 2017).

Data set [1] in a line: Half life in rat liver microsomes at […] by LC-MS/MS analysis. The data set is classed as ADME, microsome. (Liver microsomes are a subcellular fraction often used to study metabolism.)
Data set [2] is described as follows: Half life in human liver microsomes at […] by LC-MS/MS analysis. The data set is classed as ADME, microsome.
In data set [3] the test system is Rattus norvegicus. As to the kind of experiment: Clearance in Sprague-Dawley rat at 25 mg/kg, po or 5 mg/kg, iv administered as single dose by LC-MS/MS analysis. The data set is classed as ADME, organism-based. Conditions: in vivo.
Data set [4] in a line: Metabolic stability in human liver microsomes assessed as parent compound remaining at […] incubated for 5 mins measured up to 60 mins by LC-MS/MS analysis. Conditions: read-out: Stability. The data set is classed as ADME, microsome.
Data set [5] deals with Rattus norvegicus. As to the kind of experiment: Oral bioavailability in Sprague-Dawley rat at 25 mg/kg administered as single dose by LC-MS/MS analysis. The data set is classed as ADME, organism-based. Conditions: in vivo.
Data set [6] deals with Rattus norvegicus. Description: AUC (0 to t) in Sprague-Dawley rat at 25 mg/kg, po administered as single dose by LC-MS/MS analysis. The data set is classed as ADME, organism-based. Conditions: in vivo.
A short description of data set [7]: Half life in Sprague-Dawley rat at 25 mg/kg, po administered as single dose by LC-MS/MS analysis. The data set is classed as ADME, organism-based. Conditions: in vivo.
Data set [8] can be described thus: Metabolic stability in mouse liver microsomes assessed as parent compound remaining at […] incubated for 5 mins measured up to 60 mins by LC-MS/MS analysis. The data set is classed as ADME, microsome. Conditions: read-out: Stability.
Data set [9] can be described thus: Apparent volume of distribution during terminal phase in Sprague-Dawley rat at 25 mg/kg, po or 5 mg/kg, iv administered as single dose by LC-MS/MS analysis. The data set is classed as ADME, organism-based. Conditions: in vivo, read-out: Vz/F.
The nature of data set [10]: Metabolic stability in rat liver microsomes assessed as parent compound remaining at […] incubated for 5 mins measured up to 60 mins by LC-MS/MS analysis. The data set is classed as ADME, microsome. Conditions: read-out: Stability.
A short description of data set [11]: Metabolic stability in dog liver microsomes assessed as parent compound remaining at […] incubated for 5 mins measured up to 60 mins by LC-MS/MS analysis. Conditions: read-out: Stability. The data set is classed as ADME, Canis lupus familiaris, microsome.
Data set [12] is described as follows: Tmax in Sprague-Dawley rat at 25 mg/kg, po or 5 mg/kg, iv administered as single dose by LC-MS/MS analysis. The data set is classed as ADME, organism-based. Conditions: in vivo.
The nature of data set [13]: Metabolic stability in monkey liver microsomes assessed as parent compound remaining at […] incubated for 5 mins measured up to 60 mins by LC-MS/MS analysis. The data set is classed as ADME, Macaca mulatta, microsome. Conditions: rhesus monkey, read-out: Stability.

For `CS(=O)(=O)c1ccc(-c2c[nH]c3c(=O)n(Cc4cc(F)ccc4C#N)c(N4CCC[C@@H](N)C4)nc23)cc1`, the half-life in data set [1] and in data set [2] was over 3.33 h each time.

Regarding `N#Cc1ccc(F)cc1Cn1c(N2CCC[C@@H](N)C2)nc2c(-c3cccs3)c[nH]c2c1=O`, the half-life (commonly how long it takes for the measured level to halve) in data set [1] came out at 0.609 h; in [2] it was 0.585 h.

Turning to `N#Cc1ccc(F)cc1Cn1c(N2CCC[C@@H](N)C2)nc2c(-c3ccc(F)cc3)c[nH]c2c1=O`, the values for the half-life in [1] and in data set [2] were 1.2 h and 3.01 h, respectively.

`N#Cc1ccc(F)cc1Cn1c(N2CCC[C@@H](N)C2)nc2c(-c3ccc(S(N)(=O)=O)cc3)c[nH]c2c1=O`: the half-life in [1] and in data set [2] was over 3.33 h in each case.

As to `N#Cc1ccc(F)cc1Cn1c(N2CCC[C@@H](N)C2)nc2c(F)c[nH]c2c1=O`, the half-life in data set [1] was found to be 0.838 h; in data set [2] it was 1.64 h.

Turning to `CS(=O)(=O)c1ccccc1-c1c[nH]c2c(=O)n(Cc3cc(F)ccc3C#N)c(N3CCC[C@@H](N)C3)nc12`, the figures for the half-life in [1] and in data set [2] were 3.28 h and over 3.33 h, respectively.

As for `CS(=O)(=O)c1cccc(-c2c[nH]c3c(=O)n(Cc4cc(F)ccc4C#N)c(N4CCC[C@@H](N)C4)nc23)c1`, the half-life in data set [1] was 1.65 h; in data set [2], over 3.33 h.

Take `CC(C)S(=O)(=O)c1ccc(-c2c[nH]c3c(=O)n(Cc4cc(F)ccc4C#N)c(N4CCC[C@@H](N)C4)nc23)cc1`: the half-life in data set [1] is over 3.33 h; in data set [2], 0.722 h.

For `Cn1c(=O)cc(N2CCC[C@@H](N)C2)n(Cc2cc(F)ccc2C#N)c1=O` [TRELAGLIPTIN], the CL in the data set on Rattus norvegicus [3] is 128 mL/min/kg. Also, the remaining at 60 min in [4], in data set [8], in data set [10], in data set [11] and in data set [13] was over 80% in each case. This compound also had a F in the data set with Rattus norvegicus [5] of 46.9%. In the data set on Rattus norvegicus [6], this compound returned an AUCt of 6820 ng·h/mL. Moreover, the half-life in data set [7] was 5.13 h; in [1], over 3.33 h; in [2] it was over 3.33 h. In addition, the Vd/F in [9] is 48.2 L/kg. For the same compound, in data set [12], the Tmax (usually the time at which the peak concentration occurs) stood at 0.7 h.

Consider `CS(=O)(=O)c1ccc(-c2c[nH]c3c(=O)n(Cc4cc(F)ccc4C#N)c(N4CCC[C@@H](N)C4)nc23)c(F)c1`, for which the half-life in [1] was 1.59 h; in [2], over 3.33 h.

On to `N#Cc1ccc(F)cc1Cn1c(N2CCC[C@@H](N)C2)nc2cc[nH]c2c1=O`, for which the CL in the data set on Rattus norvegicus [3] was 222 mL/min/kg. In the data set with Rattus norvegicus [5], this compound registered an F of 10.6%. In the data set with Rattus norvegicus [6], this compound had an AUCt of 1880 ng·h/mL. The half-life in data set [7] was 5.46 h; in data set [1], over 1 h; in [2], 3.33 h. Further, in data set [9], the Vd/F is 106 L/kg. For the same compound, the time of peak concentration (Tmax) in data set [12] turned out to be 0.14 h.

With `N#Cc1ccc(F)cc1Cn1c(N2CCC[C@@H](N)C2)nc2c(Br)c[nH]c2c1=O`, the figures for the half-life in data set [1] and in [2] were 0.625 h and 2.21 h, respectively.

Consider `N#Cc1ccc(F)cc1Cn1c(N2CCC[C@@H](N)C2)nc2c(-c3ccsc3)c[nH]c2c1=O`, for which the CL in the data set with Rattus norvegicus [3] came to 147 mL/min/kg. The F with Rattus norvegicus [5] turned out to be 33.4%. The same compound gave an AUCt in the data set with Rattus norvegicus [6] of 2920 ng·h/mL. The half-life in data set [7] is 7.89 h; in data set [1], 0.783 h; in [2] it was 2.67 h. Further, the Vd/F in data set [9] was 104 L/kg. In addition, in data set [12], the Tmax was 2.33 h.

As for `CS(=O)(=O)c1ccc(-c2c[nH]c3c(=O)n(Cc4cc(F)ccc4C#N)c(N4CCC[C@@H](N)C4)nc23)cc1F`, the half-life in data set [1] is 2.78 h; in data set [2] it was over 3.33 h.
